Measured values from patent publication US8048862B2, “Macrocyclic inhibitors of hepatitis C virus replication” (priority 2008, dated 2011).
Read-outs that look alike come from different tables or passages of the source.

How the values were obtained:
[1] = tested on: hepatitis C replicon; assay: hepatitis C replicon EC50; type: cell-based; settings: Hepatitis C virus
Description: NS3-NS4 inhibition activity can be determined using known assay methods.

[2] = target: NS3/NS4 complexes (Hepatitis C virus genotype 1a, UniProt P27958); assay: NS3/NS4 inhibition activity (IC50); type: biochemical
In short: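 NS3/NS4 complexes were formed and compound inhibitory concentrations determined at ambient temperature (23 °C). The buffer contained 50 mM Tris-HCl pH 7.5, 15% glycerol, 0.6 mM LDAO, 25 μM NS4A peptide and 10 mM DTT.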

[3] = Table 3, hepatitis C replicon, read-out: EC50

Sequence of NS3/NS4 complexes (P27958 1027-1657): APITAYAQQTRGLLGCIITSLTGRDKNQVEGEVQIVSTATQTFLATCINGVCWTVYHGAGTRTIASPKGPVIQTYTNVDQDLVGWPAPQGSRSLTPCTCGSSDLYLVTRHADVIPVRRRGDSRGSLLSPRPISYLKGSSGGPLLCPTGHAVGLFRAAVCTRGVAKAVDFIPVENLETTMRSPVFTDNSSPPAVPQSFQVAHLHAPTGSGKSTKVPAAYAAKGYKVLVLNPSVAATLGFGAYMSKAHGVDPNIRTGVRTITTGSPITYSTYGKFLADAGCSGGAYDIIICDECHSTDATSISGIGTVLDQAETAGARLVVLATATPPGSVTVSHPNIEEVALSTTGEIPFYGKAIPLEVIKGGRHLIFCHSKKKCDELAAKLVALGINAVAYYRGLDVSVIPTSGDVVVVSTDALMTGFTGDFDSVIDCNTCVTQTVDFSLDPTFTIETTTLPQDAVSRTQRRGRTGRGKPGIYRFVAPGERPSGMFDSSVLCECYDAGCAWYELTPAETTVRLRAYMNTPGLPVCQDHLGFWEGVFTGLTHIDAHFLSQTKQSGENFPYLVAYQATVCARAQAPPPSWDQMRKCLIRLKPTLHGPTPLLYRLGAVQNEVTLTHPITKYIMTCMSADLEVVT
Sequence of NS3/NS4 complexes (P27958 1658-1711): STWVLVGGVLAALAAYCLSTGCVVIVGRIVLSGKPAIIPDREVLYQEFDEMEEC

| Compound | EC50 [1, 3] [nM] | IC50 ([2]; Table 3, read-out: IC50) [nM] | EC50 [1] [nM] | IC50 ([2]; IC50, Table 3) [nM] |
| --- | --- | --- | --- | --- |
| CC(C)(C)OC(=O)N[C@H]1CCCCC/C=C\[C@@H]2C[C@@]2(C(=O)NOc2ccccc2)NC(=O)[C@@H]2C[C@@H](Oc3nc4ccccc4o3)CN2C1=O [Compound 1027] | > 100 | > 100 |  |  |
| CC(C)(C)OC(=O)N[C@H]1CCCCC/C=C\[C@@H]2C[C@@]2(C(=O)NS(=O)(=O)C2(C)CC2)NC(=O)[C@@H]2C[C@@H](Oc3nc4ccccc4o3)CN2C1=O [Compound 1028] | 10 to 100 | < 10 |  |  |
| CC(C)(C)OC(=O)N[C@H]1CCCCC/C=C\[C@@H]2C[C@@]2(C(=O)NS(=O)(=O)C2CC2)NC(=O)[C@@H]2C[C@@H](Oc3nc4ccccc4o3)CN2C1=O [Compound 1029] | 10 to 100 | < 10 |  |  |
| Cc1ccc2oc(O[C@@H]3C[C@H]4C(=O)N[C@]5(C(=O)NS(=O)(=O)C6CC6)C[C@H]5/C=C\CCCCC[C@H](NC(=O)OC(C)(C)C)C(=O)N4C3)nc2c1 [Compound 1030] | 10 to 100 | < 10 |  |  |
| Cc1cccc2oc(O[C@@H]3C[C@H]4C(=O)N[C@]5(C(=O)NS(=O)(=O)C6CC6)C[C@H]5/C=C\CCCCC[C@H](NC(=O)OC(C)(C)C)C(=O)N4C3)nc12 [Compound 1031] | 10 to 100 | < 10 |  |  |
| CC(C)(C)OC(=O)N[C@H]1CCCCC/C=C\[C@@H]2C[C@@]2(C(=O)NS(=O)(=O)C2CC2)NC(=O)[C@@H]2C[C@@H](Oc3nc4cc(Cl)ccc4o3)CN2C1=O [Compound 1032] | > 100 | < 10 |  |  |
| Cc1ccc2nc(O[C@@H]3C[C@H]4C(=O)N[C@]5(C(=O)NS(=O)(=O)C6CC6)C[C@H]5/C=C\CCCCC[C@H](NC(=O)OC(C)(C)C)C(=O)N4C3)oc2c1 [Compound 1033] | 10 to 100 | < 10 |  |  |
| CC(C)(C)OC(=O)N[C@H]1CCCCC/C=C\[C@@H]2C[C@@]2(C(=O)NS(=O)(=O)C2CC2)NC(=O)[C@@H]2C[C@@H](Oc3nc4cc(F)ccc4o3)CN2C1=O [Compound 1034] | 10 to 100 | < 10 |  |  |
| COc1ccc2oc(O[C@@H]3C[C@H]4C(=O)N[C@]5(C(=O)NS(=O)(=O)C6CC6)C[C@H]5/C=C\CCCCC[C@H](NC(=O)OC(C)(C)C)C(=O)N4C3)nc2c1 [Compound 1035] | > 100 | < 10 |  |  |
| CC(C)(C)OC(=O)N[C@H]1CCCCC/C=C\[C@@H]2C[C@@]2(C(=O)NS(=O)(=O)C2CC2)NC(=O)[C@@H]2C[C@@H](Oc3nc4ccc(Cl)cc4o3)CN2C1=O [Compound 1036] | > 100 | < 10 |  |  |
| CC(C)(C)OC(=O)N[C@H]1CCCCC/C=C\[C@@H]2C[C@@]2(C(=O)NS(=O)(=O)C2CC2)NC(=O)[C@@H]2C[C@@H](Oc3nc4ccc(F)cc4o3)CN2C1=O [Compound 1037] | > 100 | < 10 |  |  |
| CC(C)(C)OC(=O)N[C@H]1CCCCC/C=C\[C@@H]2C[C@@]2(C(=O)NS(=O)(=O)C2CC2)NC(=O)[C@@H]2C[C@@H](Oc3nc4cccc(F)c4o3)CN2C1=O [Compound 1038] | 10 to 100 | < 10 |  |  |
| Cc1cccc2nc(O[C@@H]3C[C@H]4C(=O)N[C@]5(C(=O)NS(=O)(=O)C6CC6)C[C@H]5/C=C\CCCCC[C@H](NC(=O)OC(C)(C)C)C(=O)N4C3)sc12 [Compound 1040] | < 10 | < 10 |  |  |
| CC(C)(C)OC(=O)N[C@H]1CCCCC/C=C\[C@@H]2C[C@@]2(C(=O)NS(=O)(=O)C2(C)CC2)NC(=O)[C@@H]2C[C@@H](Oc3nc4cc(Cl)ccc4o3)CN2C1=O [Compound 1046] | > 100 | < 10 |  |  |
| CCn1c(O[C@@H]2C[C@H]3C(=O)N[C@]4(C(=O)NS(=O)(=O)C5(C)CC5)C[C@H]4/C=C\CCCCC[C@H](NC(=O)OC(C)(C)C)C(=O)N3C2)nc2ccccc21 [Compound 1048] | < 10 | < 10 |  |  |
| CC(C)(C)OC(=O)N[C@H]1CCCCC/C=C\[C@@H]2C[C@@]2(C(=O)NS(=O)(=O)C2(C)CC2)NC(=O)[C@@H]2C[C@@H](Oc3nc4ccccc4n3Cc3ccccc3)CN2C1=O [Compound 1050] | 10 to 100 | < 10 |  |  |
| CC(C)(C)OC(=O)N[C@H]1CCCCC/C=C\[C@@H]2C[C@@]2(C(=O)NS(=O)(=O)C2CC2)NC(=O)[C@@H]2C[C@@H](Oc3nc4ccccc4n3Cc3ccccc3)CN2C1=O [Compound 1051] | 10 to 100 | < 10 |  |  |
| CC(C)(C)OC(=O)N[C@H]1CCCCC/C=C\[C@@H]2C[C@@]2(C(=O)NCCC(=O)NCc2ccccc2)NC(=O)[C@@H]2C[C@@H](OC(=O)N3Cc4cccc(F)c4C3)CN2C1=O [Compound 1052] | > 100 | > 100 |  |  |
| CC(C)(C)OC(=O)N[C@H]1CCCCC/C=C\[C@@H]2C[C@@]2(C(=O)NCC(=O)NCc2ccccc2)NC(=O)[C@@H]2C[C@@H](OC(=O)N3Cc4cccc(F)c4C3)CN2C1=O [Compound 1053] |  |  | > 100 | 10 to 100 |
| CC(C)(C)OC(=O)N[C@H]1CCCCC/C=C\[C@@H]2C[C@@]2(C(=O)N2CCC[C@@H]2C(=O)NCc2ccccc2)NC(=O)[C@@H]2C[C@@H](OC(=O)N3Cc4cccc(F)c4C3)CN2C1=O [Compound 1057] |  |  | > 100 | > 100 |
| CC(C)(C)OC(=O)N[C@H]1CCCCC/C=C\[C@@H]2C[C@@]2(C(=O)NCCC(=O)NCc2ccccc2)NC(=O)[C@@H]2C[C@@H](O)CN2C1=O [Compound 1058] | > 100 | > 100 |  |  |
| CC(=O)O[C@@H]1C[C@H]2C(=O)N[C@]3(C(=O)N4CCC[C@H]4C(=O)NCc4ccccc4)C[C@H]3/C=C\CCCCC[C@H](NC(=O)OC(C)(C)C)C(=O)N2C1 [Compound 1061] | > 100 |  |  | > 100 |
| CO[C@@H]1C[C@H]2C(=O)N[C@]3(C(=O)NCCC(=O)NCc4ccccc4)C[C@H]3/C=C\CCCCC[C@H](NC(=O)OC(C)(C)C)C(=O)N2C1 [Compound 1062] | > 100 | > 100 |  |  |
| CN(C)C(=O)O[C@@H]1C[C@H]2C(=O)N[C@]3(C(=O)NS(=O)(=O)C4(C)CC4)C[C@H]3/C=C\CCCCC[C@H](NC(=O)OC(C)(C)C)C(=O)N2C1 [Compound 1065] |  | < 10 | > 100 |  |
| CC(=O)O[C@@H]1C[C@H]2C(=O)N[C@]3(C(=O)NS(=O)(=O)C4CC4)C[C@H]3/C=C\CCCCC[C@H](NC(=O)OC(C)(C)C)C(=O)N2C1 [Compound 1071] | > 100 | < 10 |  |  |
| CC(C)(C)OC(=O)N[C@H]1CCCCC/C=C\[C@@H]2C[C@@]2(C(=O)NS(=O)(=O)C2(C)CC2)NC(=O)[C@@H]2C[C@@H](OC(=O)N3CCCC3)CN2C1=O [Compound 1072] | > 100 | < 10 |  |  |
| COc1ccc2c(O[C@@H]3C[C@H]4C(=O)N[C@]5(C(=O)NS(=O)(=O)C6CC6)C[C@H]5/C=C\CCCCC[C@H](NC(=O)OC(C)(C)C)C(=O)N4C3)cc(-c3ccccc3)nc2c1 [Compound 1075] | < 10 | < 10 |  |  |
| CC(C)n1c(O[C@@H]2C[C@H]3C(=O)N[C@]4(C(=O)NS(=O)(=O)C5(C)CC5)C[C@H]4/C=C\CCCCC[C@H](NC(=O)OC(C)(C)C)C(=O)N3C2)nc2ccccc21 [Compound 1077] | < 10 | < 10 |  |  |
| COc1ccc2c(O[C@@H]3C[C@H]4C(=O)N[C@]5(C(=O)NS(=O)(=O)C6(C)CC6)C[C@H]5/C=C\CCCCC[C@H](NC(=O)OC(C)(C)C)C(=O)N4C3)cc(-c3nc(C(C)C)cs3)nc2c1C [Compound 1078] | < 10 | < 10 |  |  |
| CC(C)(C)OC(=O)N[C@H]1CCCCC/C=C\[C@@H]2C[C@@]2(C(=O)NS(=O)(=O)C2(C)CC2)NC(=O)[C@@H]2C[C@@H](Oc3nc4ccccc4[nH]3)CN2C1=O [Compound 1079] |  | < 10 | > 100 |  |
